{
  "source": "patent US10376520B2",
  "about": "“Methods for the treatment of cardiovascular disorders” (Galapagos NV, priority 2015, dated 2019)",
  "test_system": "Subjects With Active Crohn's Disease",
  "experiment": "Total cholesterol determination, Study 5 (Crohn's disease, monotherapy of Compound 1)",
  "type": "in vivo, human",
  "details": "for [Total cholesterol] Mean CFB - 20 weeks results / [Total cholesterol] Median CFB - 20 weeks results: placebo week 0 to 10, to 100 mg q.d. week 10 to 20",
  "from_the_text": "Double-Blind, Randomized, Placebo-Controlled, Multi-Centre Study to Investigate the Efficacy and Safety of Compound 1 in Subjects With Active Crohn's Disease With Evidence of Mucosal Ulceration.\nThis is a double-blind, randomized, placebo-controlled, multi-centre Phase 2 study to investigate the efficacy and safety of Compound 1 administered once daily for the treatment of active CD with evidence of mucosal ulceration. The pharmacokinetics (including a PK substudy) and pharmacodynamics of Compound 1 and metabolite in CD will also be characterised.\nA total of 180 eligible subjects will be randomized to receive Compound 1 or placebo in addition to their stable background treatment (eg, corticosteroids, aminosalicylates, or CD-related antibiotics). The study will consist of 2 parts, with total treatment duration of 20 weeks. Randomization in Part 1 will be stratified according the subject's previous anti-TNF exposure/response, CRP level at Screening, and oral corticosteroid use at visit Day −1.\nAfter the first 10 weeks of treatment in Part 1, patients will be re-randomized for Part 2 as shown in the diagram below and will be stratified according to the subject's clinical response, previous anti-TNF exposure/response, and oral corticosteroid use at visit Day −1.\nThe following assays were conducted at Eurofins Global Central Laboratory, Bergschot 71, 4817 PA Breda, The Netherlands, and at Quest Diagnostics, Clinical Trials, Quest House, 125-135 Staines Road, Hounslow, Middlesex, TW3 3JB, United Kingdom. The assays for Study 5 were performed at BARC Europe, 3B, Industrie Park, Zwijnaarde, B-9052 Ghent, Belgium.\nThis method is based on the determination of Δ^4 cholestenone after enzymatic cleavage of the cholesterol ester by cholesterol esterase, conversion of cholesterol by cholesterol oxidase, and subsequent measurement by the Trinder reaction of the hydrogen peroxide formed (Allain et al., 1974).\nCholesterol esters are cleaved by the action of cholesterol esterase to yield free cholesterol and fatty acids. Cholesterol oxidase then catalyzes the oxidation of cholesterol to cholest-4-en-3-one and hydrogen peroxide. In the presence of peroxidase, the hydrogen peroxide formed effects the oxidative coupling of phenol and 4-aminophenazone to form a red quinone-imine dye. The color intensity of the dye formed is directly proportional to the cholesterol concentration. It is determined by measuring the increase in absorbance.\nHuman serum and plasma samples cholesterol determination was done on a Roche/Hitachi Cobas c 701/702 system which automatically calculate the analyte concentration of each sample.",
  "key": {"[1]": {"details": "Study 5 10 weeks results, 200 mg q.d., week 10"}, "[2]": {"details": "Study 5 20 weeks results, 200 mg q.d. to 100 mg q.d. at week 10, week 2"}, "[3]": {"details": "Study 5 20 weeks results, 200 mg q.d. to 100 mg q.d. at week 10, week 4"}, "[4]": {"details": "Study 5 20 weeks results, 200 mg q.d. to 100 mg q.d. at week 10, week 6"}, "[5]": {"details": "Study 5 20 weeks results, 200 mg q.d. to 100 mg q.d. at week 10, week 10"}, "[6]": {"details": "Study 5 20 weeks results, 200 mg q.d. to 100 mg q.d. at week 10, week 12"}, "[7]": {"details": "Study 5 20 weeks results, 200 mg q.d. to 100 mg q.d. at week 10, week 16"}, "[8]": {"details": "Study 5 20 weeks results, 200 mg q.d. to 100 mg q.d. at week 10, week 20"}, "[9]": {"details": "Study 5 20 weeks results, 200 mg q.d. to placebo at week 10, week 2"}, "[10]": {"details": "Study 5 20 weeks results, 200 mg q.d. to placebo at week 10, week 4"}, "[11]": {"details": "Study 5 20 weeks results, 200 mg q.d. to placebo at week 10, week 6"}, "[12]": {"details": "Study 5 20 weeks results, 200 mg q.d. to placebo at week 10, week 10"}, "[13]": {"details": "Study 5 20 weeks results, 200 mg q.d. to placebo at week 10, week 12"}, "[14]": {"details": "Study 5 20 weeks results, 200 mg q.d. to placebo at week 10, week 16"}, "[15]": {"details": "Study 5 20 weeks results, 200 mg q.d. to placebo at week 10, week 20"}, "[16]": {"details": "Study 5 20 weeks results, continued 200 mg q.d., week 2"}, "[17]": {"details": "Study 5 20 weeks results, continued 200 mg q.d., week 4"}, "[18]": {"details": "Study 5 20 weeks results, continued 200 mg q.d., week 6"}, "[19]": {"details": "Study 5 20 weeks results, continued 200 mg q.d., week 10"}, "[20]": {"details": "Study 5 20 weeks results, continued 200 mg q.d., week 12"}, "[21]": {"details": "Study 5 20 weeks results, continued 200 mg q.d., week 16"}, "[22]": {"details": "Study 5 20 weeks results, continued 200 mg q.d., week 20"}, "[23]": {"details": "Study 5 20 weeks results, placebo to 100 mg q.d. at week 10, week 12"}, "[24]": {"details": "Study 5 20 weeks results, placebo to 100 mg q.d. at week 10, week 16"}, "[25]": {"details": "Study 5 20 weeks results, placebo to 100 mg q.d. at week 10, week 20"}},
  "data": [
    {"smiles": "O=C(Nc1nc2cccc(-c3ccc(CN4CCS(=O)(=O)CC4)cc3)n2n1)C1CC1", "note": "[Compound 1, cyclopropanecarboxylic acid {5-[4-(1,1-dioxo-thiomorpholin-4-ylmethyl)-phenyl]-[1,2,4]triazolo[1,5-a]pyridin-2yl}-amide]", "values": [
      {"measurement": "[Total cholesterol] Median CFB", "setting": "[1]", "result": 0.340, "unit": "mmol/L"},
      {"measurement": "[total cholesterol] Mean CFB", "setting": "[1]", "result": 0.401, "unit": "mmol/L"},
      {"measurement": "[Total cholesterol] Median CFB", "setting": "[2]", "result": 0.19, "unit": "mmol/L"},
      {"measurement": "[total cholesterol] Mean CFB", "setting": "[2]", "result": 0.18, "unit": "mmol/L"},
      {"measurement": "[Total cholesterol] Median CFB", "setting": "[3]", "result": 0.12, "unit": "mmol/L"},
      {"measurement": "[total cholesterol] Mean CFB", "setting": "[3]", "result": 0.27, "unit": "mmol/L"},
      {"measurement": "[Total cholesterol] Median CFB", "setting": "[4]", "result": 0.28, "unit": "mmol/L"},
      {"measurement": "[total cholesterol] Mean CFB", "setting": "[4]", "result": 0.26, "unit": "mmol/L"},
      {"measurement": "[Total cholesterol] Median CFB", "setting": "[5]", "result": 0.38, "unit": "mmol/L"},
      {"measurement": "[total cholesterol] Mean CFB", "setting": "[5]", "result": 0.44, "unit": "mmol/L"},
      {"measurement": "[Total cholesterol] Median CFB", "setting": "[6]", "result": 0.33, "unit": "mmol/L"},
      {"measurement": "[total cholesterol] Mean CFB", "setting": "[6]", "result": 0.23, "unit": "mmol/L"},
      {"measurement": "[Total cholesterol] Median CFB", "setting": "[7]", "result": 0.13, "unit": "mmol/L"},
      {"measurement": "[total cholesterol] Mean CFB", "setting": "[7]", "result": 0.09, "unit": "mmol/L"},
      {"measurement": "[Total cholesterol] Median CFB", "setting": "[8]", "result": 0.10, "unit": "mmol/L"},
      {"measurement": "[total cholesterol] Mean CFB", "setting": "[8]", "result": 0.14, "unit": "mmol/L"},
      {"measurement": "[Total cholesterol] Median CFB", "setting": "[9]", "result": 0.24, "unit": "mmol/L"},
      {"measurement": "[total cholesterol] Mean CFB", "setting": "[9]", "result": 0.16, "unit": "mmol/L"},
      {"measurement": "[Total cholesterol] Median CFB", "setting": "[10]", "result": 0.34, "unit": "mmol/L"},
      {"measurement": "[total cholesterol] Mean CFB", "setting": "[10]", "result": 0.27, "unit": "mmol/L"},
      {"measurement": "[Total cholesterol] Median CFB", "setting": "[11]", "result": 0.29, "unit": "mmol/L"},
      {"measurement": "[total cholesterol] Mean CFB", "setting": "[11]", "result": 0.22, "unit": "mmol/L"},
      {"measurement": "[Total cholesterol] Median CFB", "setting": "[12]", "result": 0.23, "unit": "mmol/L"},
      {"measurement": "[total cholesterol] Mean CFB", "setting": "[12]", "result": 0.22, "unit": "mmol/L"},
      {"measurement": "[Total cholesterol] Median CFB", "setting": "[13]", "result": 0.18, "unit": "mmol/L"},
      {"measurement": "[total cholesterol] Mean CFB", "setting": "[13]", "result": 0.04, "unit": "mmol/L"},
      {"measurement": "[Total cholesterol] Median CFB", "setting": "[14]", "result": 0.05, "unit": "mmol/L"},
      {"measurement": "[total cholesterol] Mean CFB", "setting": "[14]", "result": 0.19, "unit": "mmol/L"},
      {"measurement": "[Total cholesterol] Median CFB", "setting": "[15]", "result": 0.07, "unit": "mmol/L"},
      {"measurement": "[total cholesterol] Mean CFB", "setting": "[15]", "result": 0.18, "unit": "mmol/L"},
      {"measurement": "[Total cholesterol] Median CFB", "setting": "[16]", "result": 0.21, "unit": "mmol/L"},
      {"measurement": "[total cholesterol] Mean CFB", "setting": "[16]", "result": 0.27, "unit": "mmol/L"},
      {"measurement": "[Total cholesterol] Median CFB", "setting": "[17]", "result": 0.16, "unit": "mmol/L"},
      {"measurement": "[total cholesterol] Mean CFB", "setting": "[17]", "result": 0.14, "unit": "mmol/L"},
      {"measurement": "[Total cholesterol] Median CFB", "setting": "[18]", "result": 0.33, "unit": "mmol/L"},
      {"measurement": "[total cholesterol] Mean CFB", "setting": "[18]", "result": 0.19, "unit": "mmol/L"},
      {"measurement": "[Total cholesterol] Median CFB", "setting": "[19]", "result": 0.47, "unit": "mmol/L"},
      {"measurement": "[total cholesterol] Mean CFB", "setting": "[19]", "result": 0.43, "unit": "mmol/L"},
      {"measurement": "[Total cholesterol] Median CFB", "setting": "[20]", "result": 0.29, "unit": "mmol/L"},
      {"measurement": "[total cholesterol] Mean CFB", "setting": "[20]", "result": 0.42, "unit": "mmol/L"},
      {"measurement": "[Total cholesterol] Median CFB", "setting": "[21]", "result": 0.31, "unit": "mmol/L"},
      {"measurement": "[total cholesterol] Mean CFB", "setting": "[21]", "result": 0.43, "unit": "mmol/L"},
      {"measurement": "[Total cholesterol] Median CFB", "setting": "[22]", "result": 0.26, "unit": "mmol/L"},
      {"measurement": "[total cholesterol] Mean CFB", "setting": "[22]", "result": 0.40, "unit": "mmol/L"},
      {"measurement": "[Total cholesterol] Median CFB", "setting": "[23]", "result": 0.02, "unit": "mmol/L"},
      {"measurement": "[total cholesterol] Mean CFB", "setting": "[23]", "result": 0.11, "unit": "mmol/L"},
      {"measurement": "[Total cholesterol] Median CFB", "setting": "[24]", "result": 0.01, "unit": "mmol/L"},
      {"measurement": "[total cholesterol] Mean CFB", "setting": "[24]", "result": 0.08, "unit": "mmol/L"},
      {"measurement": "[Total cholesterol] Median CFB", "setting": "[25]", "result": 0.10, "unit": "mmol/L"},
      {"measurement": "[total cholesterol] Mean CFB", "setting": "[25]", "result": 0.03, "unit": "mmol/L"},
      {"measurement": "[Total cholesterol] Mean CFB - 20 weeks results", "setting": "week 12", "result": 2.49, "unit": "%"},
      {"measurement": "[Total cholesterol] Median CFB - 20 weeks results", "setting": "week 12", "result": 0.41, "unit": "%"},
      {"measurement": "[Total cholesterol] Mean CFB - 20 weeks results", "setting": "week 16", "result": 2.84, "unit": "%"},
      {"measurement": "[Total cholesterol] Median CFB - 20 weeks results", "setting": "week 16", "result": 0.19, "unit": "%"},
      {"measurement": "[Total cholesterol] Mean CFB - 20 weeks results", "setting": "week 20", "result": 1.90, "unit": "%"},
      {"measurement": "[Total cholesterol] Median CFB - 20 weeks results", "setting": "week 20", "result": 2.81, "unit": "%"}
    ]}
  ]
}
